Data taken from US20240381872A1, “SUBSTITUTED 2,3-DIHYDRO[1,3]THIAZOLO[4,5-B]PYRIDINES, SALTS THEREOF AND THEIR USE AS HERBICIDALLY ACTIVE SUBSTANCES” (BAYER AKTIENGESELLSCHAFT, priority 2021, published 2024).

How the values were obtained:
Format in all cases: in vivo
Zea mays (ZEAMX) [1] = assay: Pre-emergence effects on crop plants, section D (Table D1); conditions: visual grading after ca. 3 weeks
Excerpt: (§1) Seeds of mono- and dicotyledonous weed plants and crop plants were sown, in plastic or organic planting pots, in sandy loam and covered with soil. The compounds according to the invention, formulated in the form of wettable powders (WP) or as emulsifiable concentrates (EC), were applied to the surface of the covering soil as aqueous suspension or emulsion, with the addition of 0.5% of an additive, at an application rate of 600 l of water/ha (converted).
(§2) Following treatment, the pots were placed in a greenhouse and kept under optimum growth conditions for the test plants. The visual grading of the damage to the test plants was carried out after ca. 3 weeks in comparison to untreated controls (herbicidal effect in percent (%): 100% effect=plants have died off, 0% effect=as control plants).
(§3) Tables D1 to D5 below show the effects of various compounds of the general formula (I) according to Table 1 on various crop plants and an application rate corresponding to 320 g/ha or below obtained by the experimental procedure mentioned above in Biological Examples, Section C.

[2] = system: Triticum aestivum (TRZAS); assay: Pre-emergence effects on crop plants, section D (Table D2); conditions: visual grading after ca. 3 weeks
Excerpt: as §1, §2, §3

Oryza sativa (ORYZA) [3] = assay: Pre-emergence effects on crop plants, section D (Table D3); conditions: visual grading after ca. 3 weeks
Excerpt: as §1, §2, §3

Glycine max (GLXMA) [4] = assay: Pre-emergence effects on crop plants, section D (Table D4); conditions: visual grading after ca. 3 weeks
Excerpt: as §1, §2, §3

Brassica napus (BRSNW) [5] = assay: Pre-emergence effects on crop plants, section D (Table D5); conditions: visual grading after ca. 3 weeks
Excerpt: as §1, §2, §3

Zea mays (ZEAMX) [6] = assay: Post-emergence effects on crop plants, section F (Table F1)
Excerpt: (§4) Seeds of mono- and dicotyledonous weed plants and crop plants were sown, in plastic or organic planting pots, in sandy loam, covered with soil and grown in a greenhouse under controlled growth conditions. 2 to 3 weeks after sowing, the test plants were sprayed in the single-leaf stage. The compounds according to the invention, formulated in form of wettable powders (WP) or as emulsifiable concentrates (EC), were sprayed onto the green plant parts as aqueous suspension or emulsion, with the addition of 0.5% of an additive, at an application rate of 600 l of water/ha (converted). The test plants were placed in the greenhouse for ca. 3 weeks under optimum growth conditions, and then the effect of the preparations was assessed visually in comparison with untreated controls (herbicidal effect in percent (%): 100% effect=plants have died off, 0% effect=as control plants). Tables F1 to F4 below show the effects of selected compounds of the general formula (I) according to Table 1 on various crop plants and an application rate corresponding to 320 g/ha or below obtained by the experimental procedure mentioned above.

[7] = system: Triticum aestivum (TRZAS); assay: Post-emergence effects on crop plants, section F (Table F2)
Excerpt: as §4

Oryza sativa (ORYZA) [8] = assay: Post-emergence effects on crop plants, section F (Table F3); conditions: Oryza sativa, 504 h, read-out: post-emergence activity against ORYZA in %
Excerpt: as §4

Glycine max (GLXMA) [9] = assay: Post-emergence effects on crop plants, section F (Table F4)
Excerpt: as §4

Brassica napus (BRSNW) [10] = assay: Post-emergence effects on crop plants, section F (Table F5)
Excerpt: as §4

[11] = system: Alopecurus myosuroides (ALOMY); assay: Herbicidal pre-emergence action, section C (Table C2); conditions: Alopecurus myosuroides, pre-emergence, 504 h; application rate 320 g/ha; visual grading after ca. 3 weeks vs untreated controls; read-out: pre-emergence activity against ALOMY in %
Excerpt: (§5) Seeds of mono- and dicotyledonous weed plants and crop plants were sown, in plastic or organic planting pots, in sandy loam and covered with soil. The compounds according to the invention, formulated in the form of wettable powders (WP) or as emulsifiable concentrates (EC), were applied to the surface of the covering soil as aqueous suspension or emulsion, with the addition of 0.5% of an additive, at an application rate of 600 l of water/ha (converted). Following treatment, the pots were placed in a greenhouse and kept under optimum growth conditions for the test plants. The visual grading of the damage to the test plants was carried out after ca. 3 weeks in comparison to untreated controls (herbicidal effect in percent (%): 100% effect=plants have died off, 0% effect=as control plants).

[12] = system: Echinochloa crus-galli (ECHCG); assay: Herbicidal pre-emergence action, section C (Table C3); conditions: Echinochloa crus-galli, pre-emergence, 504 h; application rate 320 g/ha; visual grading after ca. 3 weeks vs untreated controls; read-out: pre-emergence activity against ECHCG in %
Excerpt: as §5

Setaria viridis (SETVI) = assay: Herbicidal pre-emergence action, section C (Table C8); conditions: Setaria viridis, pre-emergence, 504 h; application rate 320 g/ha; visual grading after ca. 3 weeks; read-out: pre-emergence activity against SETVI in %
Excerpt: as §5

[13] = system: Amaranthus retroflexus (AMARE); assay: Herbicidal pre-emergence action, section C (Table C11); conditions: visual grading after ca. 3 weeks
Excerpt: as §5

Veronica persica (VERPE) [14] = assay: Herbicidal post-emergence action, section E (Table E9); conditions: Veronica persica, 504 h, application rate 320 g/ha, visual assessment ca. 3 weeks after spraying, read-out: post-emergence activity against VERPE in %
Excerpt: as §4, with “plants).” for “plants). Tables F1 to F4 below show the effects of selected compounds of the general formula (I) according to Table 1 on various crop plants and an application rate corresponding to 320 g/ha or below obtained by the experimental procedure mentioned above.”

Veronica persica (VERPE) [15] = assay: Herbicidal pre-emergence action, section C (Table C10); conditions: application rate 320 g/ha, visual grading after ca. 3 weeks
Excerpt: as §5

[16] = system: Digitaria sanguinalis (DIGSA); assay: Herbicidal pre-emergence action, section C (Table C12); conditions: Digitaria sanguinalis, pre-emergence, 504 h; application rate 320 g/ha; visual grading after ca. 3 weeks; read-out: pre-emergence activity against DIGSA in %
Excerpt: as §5

Kochia scoparia (KCHSC) [17] = assay: Herbicidal pre-emergence action, section C (Table C13); conditions: application rate 320 g/ha, visual grading after ca. 3 weeks
Excerpt: as §5

[18] = system: Polygonum convolvulus (POLCO); assay: Herbicidal post-emergence action, section E (Table E7); conditions: Fallopia convolvulus, 504 h, application rate 320 g/ha, visual assessment ca. 3 weeks after spraying, read-out: post-emergence activity against POLCO in %
Excerpt: as §4, with “plants).” for “plants). Tables F1 to F4 below show the effects of selected compounds of the general formula (I) according to Table 1 on various crop plants and an application rate corresponding to 320 g/ha or below obtained by the experimental procedure mentioned above.”

Kochia scoparia (KCHSC) [19] = assay: Herbicidal post-emergence action, section E (Table E11); conditions: visual assessment ca. 3 weeks after spraying
Excerpt: as §4, with “plants).” for “plants). Tables F1 to F4 below show the effects of selected compounds of the general formula (I) according to Table 1 on various crop plants and an application rate corresponding to 320 g/ha or below obtained by the experimental procedure mentioned above.”

[20] = system: Polygonum convolvulus (POLCO); assay: Herbicidal pre-emergence action, section C (Table C7); conditions: application rate 320 g/ha; visual grading after ca. 3 weeks
Excerpt: as §5

[21] = Zea mays, 504 h, application rate 320 g/ha, read-out: post-emergence activity against ZEAMX in %
[22] = Triticum aestivum, 504 h, application rate 320 g/ha, read-out: post-emergence activity against TRZAS in %
[23] = Glycine max, 504 h, application rate 320 g/ha, read-out: post-emergence activity against GLXMA in %
[24] = Brassica napus, 504 h, application rate 80 g/ha, read-out: post-emergence activity against BRSNW in %
[25] = crop plant damage, application rate 320 g/ha

| Structure (SMILES) | pre-emergence activity against ZEAMX in % (crop plant damage) (Zea mays (ZEAMX) [1]; application rate 320 g/ha) | pre-emergence activity against TRZAS in % (crop plant damage) ([2]; application rate 320 g/ha) | pre-emergence activity against BRSNW in % (crop plant damage) (Brassica napus (BRSNW) [5]; application rate 320 g/ha) | percent crop plant damage (phytotoxicity) on Zea mays, post-emergence at 320 g/ha (Zea mays (ZEAMX) [6]; [21]) | percent crop plant damage (wheat, post-emergence) at 320 g/ha [7, 22] | percent crop plant damage at 320 g/ha (Glycine max (GLXMA) [9]; [23]) | crop plant damage (phytotoxicity) in % at 80 g/ha (Brassica napus (BRSNW) [10]; [24]) | pest or weed control at 320 g/ha [12] | pest or weed control at 320 g/ha (Setaria viridis (SETVI)) | pre-emergence activity against ZEAMX in % (crop plant damage) (Zea mays (ZEAMX) [1]; application rate 80 g/ha) | pest or weed control at 320 g/ha (Veronica persica (VERPE) [14]) | pre-emergence activity against GLXMA in % (crop plant damage) (Glycine max (GLXMA) [4]; application rate 80 g/ha) | pre-emergence activity against BRSNW in % (crop plant damage) (Brassica napus (BRSNW) [5]; application rate 80 g/ha) | also measured |
| --- | --- | --- | --- | --- | --- | --- | --- | --- | --- | --- | --- | --- | --- | --- |
| O=C(c1ccccc1C(F)(F)F)N1CSc2cc(Br)c(-c3ccccc3Cl)nc21 [Example I-061, [6-bromo-5-(2-chlorophenyl)[1,3]thiazolo[4,5-b]pyridin-3(2H)-yl][2-(trifluoromethyl)-phenyl]methanone] | 0% | 0% | 20% | 20% | 0% | 0% | 0% | – | – | – | – | – | – | pre-emergence activity against ORYZA in % (crop plant damage) (Oryza sativa (ORYZA) [3]; application rate 320 g/ha): 20%; pre-emergence activity against GLXMA in % (crop plant damage) (Glycine max (GLXMA) [4]; application rate 320 g/ha): 0%; percent crop plant damage at 320 g/ha (Oryza sativa (ORYZA) [8]; application rate 320 g/ha): 0% |
| O=C(C1CCCC1)N1CSc2cc(Br)c(-c3ccccc3F)nc21 [Example I-021, [6-bromo-5-(2-fluorophenyl)[1,3]thiazolo[4,5-b]pyridin-3(2H)-yl](cyclopentyl)methanone] | – | 0% | 0% | – | – | 20% | 10% | 90% | 80% | 0% | 80% | – | – | pest or weed control at 320 g/ha [11]: 80%; pest or weed control at 80 g/ha ([13]; Amaranthus retroflexus, pre-emergence, 504 h, application rate 80 g/ha, read-out: pre-emergence activity against AMARE in %): 100%; pre-emergence activity against ORYZA in % (crop plant damage) (Oryza sativa (ORYZA) [3]; application rate 80 g/ha): 10%; percent crop plant damage (phytotoxicity) on Zea mays, post-emergence at 80 g/ha (Zea mays (ZEAMX) [6]; Zea mays, 504 h, application rate 80 g/ha, read-out: post-emergence activity against ZEAMX in %): 10%; percent crop plant damage (wheat, post-emergence) at 80 g/ha ([7]; Triticum aestivum, 504 h, application rate 80 g/ha, read-out: post-emergence activity against TRZAS in %): 0%; percent crop plant damage at 80 g/ha (Oryza sativa (ORYZA) [8]; application rate 80 g/ha): 10% |
| CS(=O)(=O)N1C[S+]([O-])c2cc(Br)c(-c3ccccc3Cl)nc21 (stereo not drawn) [Example I-133] | 20% | – | – | 0% | 0% | – | 0% | 100% | 100% | – | 80% | 20% | – | pest or weed control at 320 g/ha (Veronica persica (VERPE) [15]; Veronica persica, pre-emergence, 504 h, read-out: pre-emergence activity against VERPE in %): 80%; pest or weed control at 320 g/ha [16]: 100%; pest or weed control at 320 g/ha (Kochia scoparia (KCHSC) [17]; Bassia scoparia, pre-emergence, 504 h, read-out: pre-emergence activity against KCHSC in %): 90%; pre-emergence activity against TRZAS in % (crop plant damage) ([2]; application rate 80 g/ha): 0%; pest or weed control at 320 g/ha [18]: 80%; pest or weed control at 80 g/ha (Kochia scoparia (KCHSC) [19]; Bassia scoparia, 504 h, application rate 80 g/ha, read-out: post-emergence activity against KCHSC in %): 90%; percent crop plant damage at 80 g/ha (Glycine max (GLXMA) [9]; Glycine max, 504 h, application rate 80 g/ha, read-out: post-emergence activity against GLXMA in %): 0% |
| CCS(=O)(=O)N1CS(=O)(=O)c2cc(C)c(-c3ccccc3F)nc21 [Example I-146, 3-(ethylsulfonyl)-5-(2-fluorophenyl)-6-methyl-2,3-dihydro[1,3]thiazolo[4,5-b]pyridine 1,1-dioxide] | 0% | 0% | – | 0% | 0% | 0% | – | – | – | – | – | 0% | 0% | crop plant damage (phytotoxicity) in % at 320 g/ha (Brassica napus (BRSNW) [10]; Brassica napus, 504 h, application rate 320 g/ha, read-out: post-emergence activity against BRSNW in %): 0% |
| COCCOCCOCC(=O)N1CSc2cc(Br)c(-c3cccc(F)c3F)nc21 [Example I-148] | – | 0% | – | – | – | – | – | – | – | 0% | – | 0% | 0% | pre-emergence activity against POLCO in % [20]: 80%; pre-emergence activity against VERPE in % (Veronica persica (VERPE) [15]): 80%; pre-emergence activity against AMARE in % ([13]; application rate 320 g/ha): 90%; pre-emergence activity against KCHSC in % (Kochia scoparia (KCHSC) [17]): 90%; post-emergence activity against KCHSC in % (Kochia scoparia (KCHSC) [19]; application rate 320 g/ha): 80%; post-emergence activity against ZEAMX in % (Zea mays (ZEAMX) [6]; [25]): 0%; post-emergence activity against TRZAS in % [7, 25]: 0%; post-emergence activity against GLXMA in % (Glycine max (GLXMA) [9]; [25]): 0%; post-emergence activity against BRSNW in % (Brassica napus (BRSNW) [10]; crop plant damage, application rate 80 g/ha): 20% |
